GI50 and TGI data for ten compounds are collected here from PubChem BioAssay (NCI).

What all share (experiment): DTP human tumour cell line panel, 48 h
In experiment [1] the test system is ACHN renal.
Experiment [2] relates to EKVX NSCLC.
The subject of experiment [3] is HL-60(TB) leukemia.
The test system of experiment [4] is KM12 colon.
The test system of experiment [5] is NCI-H226 lung.
In experiment [6] the test system is OVCAR-5 ovarian.
Experiment [7] deals with PC-3 prostate.
Experiment [8] deals with SF-295 CNS.
The test system of experiment [9] is SK-MEL-28 melanoma.
In experiment [10] the test system is HCC-2998 colon.

SMILES strings stand for the structures. Where “and” joins values, the source holds several entries; their conditions need not be identical. Identical values can stand only once.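 48-hour exposure; five concentrations; linearly interpolated endpoints. GI50 is the concentration that inhibits growth by half. TGI marks complete inhibition of growth.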 Where only a bound is given, the exact number is not on record here.

For the compound `CC(C)(C)c1cc(-c2nc3c(F)c(F)c(F)c(F)c3[nH]2)cc(C(C)(C)C)c1O`, the GI50 in experiment [1], in [2], in [3], in experiment [4], in experiment [5] and in experiment [6] was more than 100 µM throughout. Further, the GI50 in [7], in experiment [8] and in experiment [9] was more than 100 µM in each case. The total growth inhibition concentration (TGI) in experiment [1], in experiment [2], in experiment [3], in experiment [4], in experiment [5] and in [6] was more than 100 µM throughout. The TGI in [7], in [8] and in [9] was more than 100 µM each time.

Take `O=S(=O)(Nc1ccccn1)c1ccc(N=Nc2ccc(O)c3ncccc23)cc1`: the GI50 in [1] was 0.976 µM; in experiment [10] it was 3.73 µM; in [3] it was 0.77 µM; in experiment [4], 1.17 µM; in experiment [5], 2.96 µM; in experiment [6], 3.53 µM. In addition, the GI50 in [7] was 1.29 µM; in experiment [8] it was 2.14 µM; in experiment [9] it was 1.72 µM. Also, the concentration for total growth inhibition (TGI) in [1] was 9.64 µM; in experiment [10] it was 18.4 µM; in experiment [3], 2.61 µM; in experiment [4], 15 µM; in experiment [5], 10.8 µM; in experiment [6], 18.7 µM. For the same compound, the results for the total growth inhibition concentration (TGI) in experiment [7], in [8] and in [9] were more than 100 µM, 4.86 µM and 26 µM, respectively.

`Oc1c(CN2CCN(c3ccccc3F)CC2)cc(Br)c2cccnc12`: the GI50 is 0.495 µM in [1]; 2.87 µM in [10]; 0.392 µM in experiment [3]; 0.672 µM in experiment [4]; 1.17 µM in [5]; 5.36 µM in experiment [6]. Further, the GI50 in [7] was 0.807 µM; in [8], 2.92 µM; in experiment [9], 2.49 µM. The TGI is 13.7 µM in experiment [1]; 15.1 µM in [10]; 2.34 µM in experiment [3]; more than 100 µM in experiment [4]; 9.5 µM in experiment [5]; 49 µM in experiment [6]. Moreover, the TGI was 31.7 µM in [7], 42.1 µM in experiment [8] and more than 100 µM in experiment [9].

Regarding `Cc1ccc(C2=NN(c3ccc(S(N)(=O)=O)cc3)C(c3cn(-c4ccccc4)nc3-c3ccccc3)C2)cc1` (stereo unspecified), the GI50 in [1] is 9.51 µM; in experiment [10], 13.8 µM; in experiment [3] it was 44 µM; in experiment [4] it was 4.27 µM; in [5], 30.7 µM; in experiment [6], 70.4 µM. For the same compound, the GI50 was 3.32 µM in experiment [7], 73.3 µM in experiment [8] and 39.2 µM in [9]. Moreover, the concentration for total growth inhibition (TGI) in [1], in experiment [10], in experiment [3], in [4], in experiment [5] and in experiment [6] was more than 100 µM each time. In addition, the total growth inhibition concentration (TGI) in [7], in [8] and in [9] was more than 100 µM each time.

`Nc1nc(-c2cccs2)cs1`: the TGI in [1], in experiment [2], in experiment [10], in [3], in [4] and in [6] was more than 100 µM each time. Further, the TGI in experiment [7], in [8] and in [9] was more than 100 µM each time.

`COc1ccc(C(c2cc3c(cc2O)OCO3)N2CCOCC2)cc1OC` (stereo unspecified): the total growth inhibition concentration (TGI) stood at 23.5 µM in experiment [1]; 36.7 µM in [2]; 79.8 µM in [3]; 24.9 µM in [4]; 24.6 µM in experiment [5]; 21.5 µM in experiment [6]. In addition, the total growth inhibition concentration (TGI) in [7] worked out at 25.7 µM; in experiment [8], 27.2 µM; in experiment [9], 32.9 µM.

For the compound `C/C=C/C1=CN2C(=O)c3cc(OC4OC(C)C(NC)C(C)(O)C4O)c(C)c(O)c3N=C[C@@H]2C1` (stereo partly specified), the GI50 in experiment [1] was 0.071 µM and < 0.01 µM; in experiment [3], 0.0603 µM; in experiment [5], 0.124 µM; in experiment [8] it was less than 0.01 µM. Further, the total growth inhibition concentration (TGI) in experiment [3] is 0.34 µM; in [6], 2.92 µM; in experiment [7], 16.5 µM; in experiment [8] it was more than 100 µM.

Take `COc1ccc2nc(-c3cc4c([nH]c5ccccc54)c(-c4ccc(F)c(F)c4)n3)[nH]c2c1`: the GI50 in experiment [1] was 3.2 µM; in [10], 8.96 µM; in experiment [3], 2.78 µM; in experiment [4] it was 2.93 µM; in experiment [5] it was 8.91 µM; in experiment [6], 17.8 µM. Besides, the values for the GI50 in [7] and in experiment [9] were 3.25 µM and 12.7 µM, respectively. In addition, the TGI was found to be 12.6 µM in experiment [1]; 25.3 µM in [10]; 7.12 µM in experiment [3]; 13 µM in [4]; 42.5 µM in [5]; 58.6 µM in experiment [6]. Also, the concentration for total growth inhibition (TGI) in experiment [7] amounted to 22.5 µM; in [9], 27 µM.

With `CC(CN)[C@@H]1CC[C@]2(CO)CC[C@]3(C)[C@H](CC[C@@H]4[C@@]5(C)CCC(N)C(C)(C)[C@@H]5CC[C@]43C)[C@@H]12` (stereo partly specified), the GI50 in experiment [1] was 1.77 µM; in [2], 1.73 µM; in experiment [10], 1.89 µM; in experiment [4], 1.74 µM; in experiment [5], 1.95 µM; in [6], 1.85 µM. In addition, the figures for the GI50 in experiment [7], in [8] and in experiment [9] were 1.74 µM, 1.74 µM and 1.91 µM, respectively. Moreover, the TGI in [1] was found to be 3.22 µM; in experiment [2] it was 3.51 µM; in experiment [10], 3.66 µM; in experiment [4] it was 3.34 µM; in experiment [5], 4.04 µM; in experiment [6] it was 3.58 µM. Moreover, the values for the total growth inhibition concentration (TGI) in [7], in [8] and in experiment [9] were 3.31 µM, 3.41 µM and 3.62 µM, respectively.

With `CCOC(=O)N1C=CC(=C2C(=C3C=CN(C(=O)OCC)C=C3)C(=C3C=CN(C(=O)OCC)C=C3)C2=C2C=CN(C(=O)OCC)C=C2)C=C1`, the total growth inhibition concentration (TGI) in [1] was 38.1 µM; in experiment [2], more than 100 µM; in experiment [3] it was more than 100 µM; in experiment [4] it was more than 100 µM; in [5], 71 µM; in experiment [6] it was more than 100 µM. Moreover, the results for the total growth inhibition concentration (TGI) in experiment [7], in experiment [8] and in experiment [9] were 91.7 µM, 92.3 µM and more than 100 µM, respectively.
